The record followed here is patent US9174964B2, “AMPK-activating piperidinyloxy-substituted 2,3-dihydro-1H-indene-1-amine compounds and pharmaceutical compositions including the same” (Rigel Pharmaceuticals, Inc., priority 2007, dated 2015).

By EC50 is commonly meant the concentration needed to bring the measured effect to its halfway point. High values mean lower potency in that assay, low ones higher potency in that assay.

Each structure is given as a SMILES string. Structures can show the parent of a compound that is named as a salt.

The first test deals with AMPK. In words: AMPK activation, enzyme-linked immunosorbent assay. It is filed as biochemical. The settings on record: Table 2, AMPK activation, ELISA. The procedure:
Compounds 1-50 of Table 1 were assayed for their ability to activate AMPK using an enzyme-linked immunosorbent assay.
Compounds 51-60 of Table 1 were assayed for their ability to activate AMPK using an enzyme-linked immunosorbent assay.
Compounds 61-131 of Table 1 were assayed for their ability to activate AMPK using an enzyme-linked immunosorbent assay.
Compounds 137-141 and 143-155 of Table 1 were assayed for their ability to activate AMPK using an enzyme-linked immunosorbent assay.
Compounds 156-160 of Table 1 were assayed for their ability to activate AMPK using an enzyme-linked immunosorbent assay.
(In general: In an ELISA, binding on a coated surface is turned into a signal by an enzyme label.)
The compound `N#Cc1ccc(CN2CCC(NC(=O)c3cncc(OC4CCN(c5ccc(C(F)(F)F)cc5)CC4)c3)CC2)cc1` [Compound 17, N-(1-(4-cyanobenzyl)piperidin-4-yl)-5-(1-(4-(trifluoromethyl)phenyl)piperidin-4-yloxy)nicotinamide] came in with an EC50 of less than 100 nM.

Regarding `O=C(N[C@H]1CCNC1)c1ccc(OC2CCN(c3ccc(C(F)(F)F)cc3)CC2)cn1` [Compound 27, (S)-N-(pyrrolidin-3-yl)-5-(1-(4-(trifluoromethyl)phenyl)piperidin-4-yloxy)picolinamide], the EC50 is greater than 10000 nM.

In turn, `O=C(NC1CCN(Cc2ccncc2)CC1)c1ccnc(OC2CCN(c3ccc(C(F)(F)F)cc3)CC2)c1` [Compound 20, N-(1-(pyridin-4-ylmethyl)piperidin-4-yl)-2-(1-(4-(trifluoromethyl)phenyl)piperidin-4-yloxy)isonicotinamide] registered an EC50 of 500 to 1000 nM.

In turn, `O=C(NCCCNCc1ccncc1)c1ccc(OC2CCN(c3ccc(C(F)(F)F)cc3)CC2)cn1` [Compound 50, N-(3-(pyridin-4-ylmethylamino)propyl)-5-(1-(4-(trifluoromethyl)phenyl)piperidin-4-yloxy)picolinamide] came in with an EC50 of 1000 to 5000 nM.

As for `O=C(NC1CCN(Cc2ccncc2)CC1)c1ccc(OC2CCN(c3ccc(C(F)(F)F)cc3)CC2)cn1` [Compound 3, N-(1-(pyridin-4-ylmethyl)piperidin-4-yl)-5-(1-(4-(trifluoromethyl)phenyl)piperidin-4-yloxy)picolinamide], the EC50 is less than 100 nM.

With `N#Cc1ccc(N2CCC(Oc3ccc(C(=O)NC4CCN(Cc5ccncc5)CC4)nc3)CC2)cc1` [Compound 1, 5-(1-(4-cyanophenyl)piperidin-4-yloxy)-N-(1-(pyridin-4-ylmethyl)piperidin-4-yl)picolinamide], the half-maximal effective concentration (EC50) lay within 100 to 500 nM.

On to `CC(C)(C)OC(=O)N1CC[C@@H](NC(=O)c2ccc(OC3CCN(c4ccc(C(F)(F)F)cc4)CC3)cn2)C1` [Compound 23, (R)-tert-butyl 3-(5-(1-(4-(trifluoromethyl)phenyl)piperidin-4-yloxy)picolinamido) pyrrolidine-1-carboxylate], for which the EC50 was 100 to 500 nM.

`O=C(N[C@H]1CCN(Cc2ccncc2)C1)c1ccc(OC2CCN(c3ccc(C(F)(F)F)cc3)CC2)cn1` [Compound 30, (S)-N-(1-(pyridin-4-ylmethyl)pyrrolidin-3-yl)-5-(1-(4-(trifluoromethyl)phenyl)piperidin-4-yloxy)picolinamide] yielded an EC50 of less than 100 nM.

Regarding `O=C(NC1CCN(Cc2ccc3ccccc3c2)CC1)c1ccc(OC2CCN(c3ccc(C(F)(F)F)cc3)CC2)cn1` [Compound 37, N-(1-(naphthalen-2-ylmethyl)piperidin-4-yl)-5-(1-(4-(trifluoromethyl)phenyl)piperidin-4-yloxy)picolinamide], the 50% effective concentration (EC50) lay within 500 to 1000 nM.

For `O=C(O)c1ccc(CN2CCC(NC(=O)c3ccc(OC4CCN(c5ccc(C(F)(F)F)cc5)CC4)nc3)CC2)cc1` [Compound 46, 4-((4-(6-(1-(4-(trifluoromethyl)phenyl)piperidin-4-yloxy)nicotinamido)piperidin-1-yl)methyl)benzoic acid], the EC50 is 1000 to 5000 nM.

The test is the same for the next values; noted with them: Table 4, AMPK activation, ELISA.
The compound `N#Cc1ccc(CN2CCC(Oc3ccc4oc(C(=O)NC5CCN(Cc6ccccc6)CC5)cc4c3)CC2)cc1` [Compound 114, N-(1-benzylpiperidin-4-yl)-5-(1-(4-cyanobenzyl)piperidin-4-yloxy)benzofuran-2-carboxamide] had an EC50 of 100 to 500 nM.

For the compound `O=C(NC1CCN(Cc2cccnc2)CC1)c1cc2cc(OC3CCN(c4ccc(C(F)(F)F)cc4)CC3)ccc2o1` [Compound 101, N-(1-(pyridin-3-ylmethyl)piperidin-4-yl)-5-(1-(4-(trifluoromethyl)phenyl)piperidin-4-yloxy)benzofuran-2-carboxamide], the EC50 is less than 100 nM.

Compound `O=C(N[C@@H]1CCN(Cc2ccncc2)C1)c1cc2cc(OC3CCN(c4ccc(C(F)(F)F)cc4)CC3)ccc2o1` [Compound 122, (R)-N-(1-(pyridin-4-ylmethyl)pyrrolidin-3-yl)-5-(1-(4-(trifluoromethyl)phenyl)piperidin-4-yloxy)benzofuran-2-carboxamide] gave an EC50 of 100 to 500 nM.

Compound `CN(C(=O)c1cc2cc(OC3CCN(c4ccc(C(F)(F)F)cc4)CC3)ccc2o1)C1CCN(Cc2cccnc2)CC1` [Compound 109, N-methyl-N-(1-(pyridin-3-ylmethyl)piperidin-4-yl)-5-(1-(4-(trifluoromethyl)phenyl)piperidin-4-yloxy)benzofuran-2-carboxamide] returned an EC50 of less than 100 nM.

For `CN(C(=O)c1cc2cc(OC3CCN(c4ccc(C(F)(F)F)cc4)CC3)ccc2o1)C1CCN(Cc2ccccn2)CC1` [Compound 117, N-methyl-N-(1-(pyridin-2-ylmethyl)piperidin-4-yl)-5-(1-(4-(trifluoromethyl)phenyl)piperidin-4-yloxy)benzofuran-2-carboxamide], the EC50 was less than 100 nM.

For the compound `O=C(NC1CCN(Cc2ccc(F)cc2)CC1)c1cc2ccc(OC3CCN(c4ccc(OC(F)(F)F)cc4)CC3)cc2o1` [Compound 94, N-(1-(4-fluorobenzyl)piperidin-4-yl)-6-(1-(4-(trifluoromethoxy)phenyl)piperidin-4-yloxy)benzofuran-2-carboxamide], the concentration for a half-maximal effect (EC50) is less than 100 nM.

For the compound `CC(C)(C)OC(=O)N1CCC(NC(=O)c2cc3cc(OC4CCN(Cc5ccc(C#N)cc5)CC4)ccc3o2)CC1` [Compound 113, tert-butyl 4-(5-(1-(4-cyanobenzyl)piperidin-4-yloxy)benzofuran-2-carboxamido)piperidine-1-carboxylate], the EC50 is 100 to 500 nM.

As to `O=C(NC1CCN(Cc2ccccc2)CC1)c1cc2cc(OC3CCN(c4ccc(OC(F)(F)F)cc4)CC3)ccc2o1` [Compound 80, N-(1-benzylpiperidin-4-yl)-5-(1-(4-(trifluoromethoxy)phenyl)piperidin-4-yloxy)benzofuran-2-carboxamide trifluoroacetate salt], the 50% effective concentration (EC50) was less than 100 nM.

`NC(=O)c1ccc(CN2CCC(Oc3ccc4oc(C(=O)NC5CCN(Cc6ccccc6)CC5)cc4c3)CC2)cc1` [Compound 116, N-(1-benzylpiperidin-4-yl)-5-(1-(4-carbamoylbenzyl)piperidin-4-yloxy)benzofuran-2-carboxamide] displayed an EC50 of 100 to 500 nM.

Regarding `O=C(NC1CCN(S(=O)(=O)c2cccnc2)CC1)c1cc2ccc(OC3CCN(c4ccc(OC(F)(F)F)cc4)CC3)cc2o1` [Compound 108, N-(1-(pyridin-3-ylsulfonyl)piperidin-4-yl)-6-(1-(4-(trifluoromethoxy)phenyl)piperidin-4-yloxy)benzofuran-2-carboxamide], the EC50 lay in the range of 100 to 500 nM.

On to `N#Cc1ccc(CN2CCC(Oc3ccc4oc(C(=O)NC5CCN(Cc6ccccc6)CC5)cc4c3)CC2)cc1` [Compound 70, N-(1-benzylpiperidin-4-yl)-5-(1-(4-cyanobenzyl)piperidin-4-yloxy)benzofuran-2-carboxamide], for which the EC50 was less than 100 nM.

As for `O=C(N[C@@H]1CCN(Cc2cccnc2)C1)c1cc2cc(OC3CCN(c4ccc(C(F)(F)F)cc4)CC3)ccc2o1` [Compound 123, (R)-N-(1-(pyridin-3-ylmethyl)pyrrolidin-3-yl)-5-(1-(4-(trifluoromethyl)phenyl)piperidin-4-yloxy)benzofuran-2-carboxamide], the EC50 was in the range of 100 to 500 nM.

Compound `O=C(N[C@H]1CCN(Cc2cccnc2)C1)c1cc2cc(OC3CCN(Cc4ccc(Cl)cc4)CC3)ccc2o1` [Compound 130, (S)-5-(1-(4-chlorobenzyl)piperidin-4-yloxy)-N-(1-(pyridin-3-ylmethyl)pyrrolidin-3-yl)benzofuran-2-carboxamide] came in with an EC50 of 1000 to 10000 nM.

As to `CN(C(=O)c1cc2cc(OC3CCN(c4ccc(C(F)(F)F)cc4)CC3)ccc2o1)C1CCN(Cc2ccc(C(F)(F)F)cc2)CC1` [Compound 119, N-methyl-N-(1-(4-(trifluoromethyl)benzyl)piperidin-4-yl)-5-(1-(4-(trifluoromethyl)phenyl)piperidin-4-yloxy)benzofuran-2-carboxamide], the concentration giving a half-maximal response (EC50) is less than 100 nM.

Staying with this test, now noted: Table 5, AMPK activation, ELISA.
`O=C(NC1CCN(Cc2cccnc2)CC1)c1sc2cc(OC3CCN(c4ccc(C(F)(F)F)cc4)CC3)ccc2c1Cl` [Compound 152, 3-chloro-N-(1-(pyridin-3-ylmethyl)piperidin-4-yl)-6-(1-(4-(trifluoromethyl)phenyl)piperidin-4-yloxy)benzo[b]thiophene-2-carboxamide] registered an EC50 of less than 100 nM.

For `O=C(NC1CCN(Cc2ccccn2)CC1)c1sc2cc(OC3CCN(c4ccc(C(F)(F)F)cc4)CC3)ccc2c1Cl` [Compound 153, 3-chloro-N-(1-(pyridin-2-ylmethyl)piperidin-4-yl)-6-(1-(4-(trifluoromethyl)phenyl)piperidin-4-yloxy)benzo[b]thiophene-2-carboxamide], the 50% effective concentration (EC50) fell in the range of 100 to 500 nM.

With `CC(C)(C)OC(=O)N1CCC(NC(=O)c2cc3cc(OC4CCN(c5ccc(C(F)(F)F)cc5)CC4)ccc3s2)CC1` [Compound 149, tert-butyl 4-(5-(1-(4-(trifluoromethyl)phenyl)piperidin-4-yloxy)benzo[b]thiophene-2-carboxamido)piperidine-1-carboxylate], the EC50 was less than 100 nM.

Turning to `O=C(NC1CCN(C(=O)c2ccncc2)CC1)c1sc2cc(OC3CCN(c4ccc(C(F)(F)F)cc4)CC3)ccc2c1Cl` [Compound 155, 3-chloro-N-(1-isonicotinoylpiperidin-4-yl)-6-(1-(4-(trifluoromethyl)phenyl)piperidin-4-yloxy)benzo[b]thiophene-2-carboxamide], the 50% effective concentration (EC50) is less than 100 nM.

Still in this test, the particulars now being: Table 6, AMPK activation, ELISA.
Take `FC(F)(F)c1ccc(N2CCC(Oc3ccc4c(c3)CCC4NC3CCNCC3)CC2)cc1` (centres unmarked) [Compound 157, N-(5-(1-(4-(trifluoromethyl)phenyl)piperidin-4-yloxy)-2,3-dihydro-1H-inden-1-yl)piperidin-4-amine]: the EC50 was greater than 100000 nM.
